Measurements published in publication PMC11944910, “N-(9-Acridinyl) Amino Acid Derivatives: Synthesis and In Vitro Evaluation of Anti-Toxoplasma gondii Activity” (Pharmaceutics, 2025).
“And” between values parts separate entries of the source, which are not always exact repeats. Equal values may be shown once.

Legend:
[1] = MTT cytotoxicity assay on non-infected Vero cells; assay type: cell-based; settings: Chlorocebus sabaeus (African green monkey), non-infected Vero cells (ATCC CCL-81), 72 h incubation
From the text: The Vero cell line (ATCC® CCL-81), derived from the kidney tissue of the Green African monkey (Chlorocebus sabaeus), was utilized as a model of non-infected cells in the cytotoxicity assay. The cells were thawed from stocks maintained in liquid nitrogen at the National Reference Laboratory (NRL) for Toxoplasmosis and cultured in D10 medium—Advanced Dulbecco’s Modified Eagle Medium (DMEM) (Thermo Fisher Scientific, Waltham, MA, USA), supplemented with 10% bovine calf serum (BCS) (Sigma-Aldrich, St. Louis, MO, USA), 1% HEPES buffer (Thermo Fisher Scientific, Waltham, MA, USA), and 1% penicillin-streptomycin (Pen/Strep) solution (Thermo Fisher Scientific, Waltham, MA, USA) in T25 and T75 flasks. Depending on confluency, cells were subcultured 1–2 times per week.
The MTT colorimetric assay, a widely used method for assessing the cytotoxicity of newly synthesized compounds, was used to evaluate the toxic effect of AADs on non-infected cells. This assay is based on the ability of metabolically active, viable cells to reduce the yellow 3-(4,5-dimethylthiazol-2-yl)-2,5-diphenyltetrazolium bromide (MTT) reagent to purple formazan. The number of viable cells in the well is directly proportional to the intensity of the resulting color. The MTT assay was performed according to the manufacturer’s instructions using the In Vitro Toxicology Assay Kit (MTT-based, Sigma-Aldrich, St. Louis, MO, USA), with a protocol specifically modified to accommodate the cell line and derivatives analyzed in this study.
In brief, Vero cells were seeded in a 96-well plate, at a density of 25,000 cells per well and incubated for 24 h at 37 °C in a 5% CO2 atmosphere. After the incubation period, the supernatant was removed from each well and replaced with serial dilutions of the analyzed derivatives, as well as with the combination of PYR+SDZ (Sigma-Aldrich, St. Louis, MO, USA) as a positive control. All compounds were investigated in five different concentrations, ranging from 100 μM to 6.25 μM, using a two-fold serial dilution method. The positive control was tested in the range of 0.4 μM + 100 μM to 0.025 μM + 6.25 μM (ratio of PYR+SDZ adjusted according to the literature). In negative control wells, containing only non-infected Vero cells, the discarded supernatant was replaced by a new amount of D10 medium. Blank wells, used to account for any background signal from the colored culture medium, contained only D10 medium. All samples, including controls and blanks, were analyzed in triplicates.
Samples containing Vero cells with added AADs or the positive control were incubated for 72 h. After incubation, the supernatant was discarded, and a new amount of D10 medium (100 μL) was added to each well. The MTT reagent (10 μL, […]) was subsequently added to each well, and the plates were incubated for an additional four hours. After the incubation period, the supernatant was discarded, and the resulting formazan crystals were dissolved using the solubilizing solution from the In Vitro Toxicology Assay Kit. Absorbance was measured at 540 nm using an ELISA plate reader (Multiskan EX, Thermofisher Scientific, Waltham, MA, USA). Data analysis was conducted, and CC50 values (cytotoxic concentration used to lyse/inhibit average of 50% of cells) were obtained using nonlinear regression in GraphPad Prism 10.4.1 (GraphPad Software Inc., La Jolla, CA, USA).

[2] = Solution stability by HPLC; assay type: physicochemical; settings: pH 2 (0.01 M HCl) 2 h; pH 5.5 and pH 7.4 phosphate buffer 4 h
Protocol: Solubility and stability testing was conducted for three of the derivatives, evaluated as potential in vivo testing candidates, namely AAD1, AAD2 and AAD8. The stability of the synthesized AADs was evaluated in mediums with three different pH values: 2 (0.01 M HCl), 5.5 (phosphate buffer) and 7.4 (phosphate buffer). Stability was tested by employing a HPLC method, using an Agilent 1200 chromatograph (Agilent Technologies, Palo Alto, CA, USA) and Zorbax Extend C18 column (Agilent Technologies, Palo Alto, CA, USA). The mobile phase consisted of acetonitrile and water (pH was adjusted to 3.2 using phosphoric acid) at a ratio of 30:70 (v/v) for all three AADs. Column temperature was adjusted to 25 °C, while the flow rate was […]. UV detection was performed at 220, 230, 254, 265 and 280 nm. In short, samples (solutions of the investigated AADs in the appropriate mediums) were injected twice into the HPLC column: the first time right after the preparation of the solutions, and the second time after the stability testing interval—two hours for the pH 2 solution and four hours for the pH 5.5 and 7.4 solutions. At the end of the incubation intervals, the decrease in peak areas and occurrence of additional peaks on chromatograms were analyzed in comparison with the chromatograms obtained right after the preparation of the solutions.

[3] = tested on: T. gondii RH strain tachyzoites; test: Anti-T. gondii activity screening (viable tachyzoite count, Trypan blue); assay type: cell-based, Toxoplasma gondii; settings: 25 µM, 24 h, compared to untreated control
Protocol: T. gondii RH strain tachyzoites were obtained from the NRL for Toxoplasmosis, Institute for Medical Research, Belgrade, Serbia, where the RH strain is regularly maintained via passages using female Swiss-Webster mice twice a week (Ethical license no. 323-07-02445/2014-05/1).
The anti-T. gondii activity of the AADs was evaluated according to previously described methodology, slightly modified by using the DMEM culture medium supplemented with 10% bovine calf serum (BCS) without antibiotics (referred to as modified D10 medium). RH strain T. gondii tachyzoites were harvested from the intraperitoneal exudate of infected mice during routine passage of the strain at the NRL for toxoplasmosis. The sample (intraperitoneal lavage fluid of RH strain-infected mice) was then washed three times using Dulbecco Phosphate Buffered Saline (DPBS) (Thermofisher Scientific, Waltham, MA, USA) and centrifuged at 2.500 rpm for five minutes to obtain a pellet consisting of RH strain tachyzoites only. The pellet was then resuspended, and the parasite count was determined by Trypan blue vital staining, using a Bürker-Türk counting chamber. Tachyzoites were resuspended in an appropriate volume of DMEM culture medium to achieve the required tachyzoite concentration. A suspension of tachyzoites (2 × 10^6 tachyzoites/well, in 100 μL volume) was then seeded into a 96-well microplate and exposed to a 25 µM concentration of 10 AADs, as well as a combination of PYR+SDZ, for 24 h. All samples, including the untreated control consisting of RH strain tachyzoites in a modified D10 culture medium, were tested in triplicates.
After 24 h, 20 µL of sample was collected from each well, mixed with an equal volume of Trypan blue stain, and the number of viable tachyzoites was determined using a Bürker-Türk counting chamber. The reduction in the number of viable tachyzoites compared to untreated control was calculated using the following formula:(1) Reduction %=100%−(median value of number of viable tachyzoites in test wells/median value of number of viable tachyzoites in control wells×100%)

[4] = Solubility by visual inspection; assay type: physicochemical; settings: for Solubility on dilution of DMSO solution in pH 7.4 phosphate buffer: diluted up to 10,000 times in pH 7.4 phosphate buffer; for solubility: organic solvent or mixture, DMSO, tested up to 30 mM, read-out: Solubility in DMSO (clear and transparent solutions)
Protocol: Solubility and stability testing was conducted for three of the derivatives, evaluated as potential in vivo testing candidates, namely AAD1, AAD2 and AAD8. Solubility was evaluated using a visual inspection method, checking the clarity and opalescence of different concentrations (up to 30 mM) of dimethyl sulfoxide (DMSO) solutions of the mentioned AADs, as well as of their further dilutions with the pH 7.4 phosphate buffer (100-, 1000- and 10,000-times dilutions).

Solution stability (HPLC peak area, additional peaks) [2] | Solubility on dilution of DMSO solution in pH 7.4 phosphate buffer [4] | solubility [4] [mM] | SMILES | CC50 at 72 h [1] [µM] | Viability Reduction of T. gondii Tachyzoites [3]
stable | maintaining solubility | ≥ 30 | CCOC(=O)CCCCCNc1c2ccccc2nc2ccccc12 [AAD1] | 41.7 | 24.7%
stable | maintaining solubility | ≥ 30 | Cn1cc(CC(Nc2c3ccccc3nc3ccccc23)C(=O)O)c2ccccc21 (stereo not shown) [AAD2] | 60.2 | 
 |  |  | COC(=O)CCCCCCCNc1c2ccccc2nc2ccccc12 [AAD3] | 88.4 | 15.2%
 |  |  | COC(=O)C(Cc1c[nH]cn1)Nc1c2ccccc2nc2ccccc12 (stereo not shown) [AAD4] | 134 | 4.5%
 |  |  | O=C(O)CCCCCCCNc1c2ccccc2nc2ccccc12 [AAD6, 8-(acridin-9-ylamino) octanoic acid] | 154 | 22.0%
 |  |  | O=C(O)CCCCCNc1c2ccccc2nc2ccccc12 [AAD7, 6-(acridin-9-ylamino) hexanoic acid] | 93 | 20.9% and 20.5%
stable | maintaining solubility | ≥ 30 | O=C(O)CCCNc1c2ccccc2nc2ccccc12 [AAD8, 4-(acridin-9-ylamino) butanoic acid] | 102 | 33.3%
 |  |  | O=C(O)[C@H](Cc1ccccc1)Nc1c2ccccc2nc2ccccc12 [AAD9, (S) 2-(acridin-9-ylamino)-3-phenylpropanoic acid] | 50.2 | 
 |  |  | O=C(O)CCNc1c2ccccc2nc2ccccc12 [AAD10, 3-(acridin-9-ylamino) propanoic acid] | 177 | 21.9%
